Assay results as given in patent US9796665B2 (priority 2013, dated 2017).

Columns and labels:
[1] = system: oxazolone-induced atopic dermatitis animal model; experiment: Oxazolone-induced atopic dermatitis animal model, skin thickness; type: in vivo, hairless mice; details: FIG. 7(A) and (B)
Description: (§1) In order to evaluate efficacy of the novel compound according to the present invention in an animal model, first, hairless mice were treated with oxazolone (Sigma), thereby establishing atopic dermatitis-like animal models. More specifically, on day 1, the mice were sensitized with 1% oxazolone in acetone on the back, and after 1 week, the mice were treated with 0.1% oxazolone in acetone on the back every other day for 2 weeks, thereby inducing atopic dermatitis-like symptoms. Thereafter, the compound (1%) according to the present invention was dissolved in a solution in which polyethylene glycol (PEG, Sigma) and ethanol were mixed with each other at a ratio of 7:3, and the mice were treated with the obtained compound solution on the back once in the morning and evening for 10 days. […] In addition, a skin thickness of each of the animal models was measured and illustrated by a graph. […] Therefore, the compound according to the present invention may be effective to treat atopic dermatitis.

[2] = molecular target: T1, cannabinoid receptor 1 (CB1R) (Homo sapiens, UniProt P21554); experiment: cAMP production suppression in CHO cells over-expressing CB1R (HTRF cAMP assay, forskolin-induced); type: cell-based; details: for concentration of cAMP: 0-50 μM compound, 10 μM forskolin, FIG. 1; for Modulation: Target CB1R
T1 construct: host or cells: CHO cells over-expressing CB1R
Excerpt: cAMP production suppression efficacy by agonistic action of the synthesized materials was confirmed using CHO cells in which cannabinoid receptor 1 (CB1R) was over-expressed.
The CHO cells in which the cannabinoid receptor 1 (CB1R) was over-expressed were purchased from Chantest, and cultured in an F-12 medium (Gibco) containing 10% fetal bovine serum (FBS, Gibco). In order to conform an agonistic activity of a ceramide derivative compounds according to the present invention on the cannabinoid receptor, the cells were plated in a 96-well dish, cultured for 24 hours, and then, treated at concentrations of 0, 0.781, 1.562, 3.125, 6.25, 12.5, 25, and 50 μM (0.1% DMSO in PBS). The cells were treated with 10 μM Forskolin (Sigma), thereby inducing cAMP production by adenylyl cyclase in the cells. A concentration of cAMP in the cells was measured using a HTRF cAMP assay kit purchased from Cisbio. After dissolving the cells with lysis buffer in the kit according to the manufacturer's manual, anti-cAMP cryptate conjugate and cAMP-d2 in the kit were treated at room temperature for 2 hours. Thereafter, fluorescence was measured at 665 nm and 620 nm and compensated by a ratio of 665 nm/620 nm, and then, the concentration of cAMP in the cells was measured using a standard curve. Since activity of adenylyl cyclase was suppressed when the cannabinoid receptor 1 (CB1R) was activated, the cannabinoid receptor agonist according to the present invention suppresses production of cAMP in the cells. […] As illustrated in the following Table 1, it may be confirmed that the novel cannabinoid receptor agonists according to the present invention activate the cannabinoid receptor 1 (CB1R) when EC50 was 24 to 26 μM.

[3] = system: RBL-2H3 cells (rat basophilic leukemia cells); experiment: Degranulation of mast cells activated by ionomycin; type: cell-based; details: FIG. 2(A) and (B)
Description: In order to confirm whether or not the ceramide derivative compound according to the present invention suppresses activation of the mast cells, RBL-2H3 cells (rat basophilic leukemia cells) corresponding to one kind of mast cells were cultured in a DMEM medium containing 10% FBS in a 24-well plate, and then treated with the compound for 16 hours. In order to induce degranulation of the mast cells, the cells were treated with 2 μM ionomycin (Sigma), and after 30 minutes, concentrations of β-hexosaminidase and histamine released to the medium were measured. In detail, at the time of measuring the concentration of β-hexosaminidase, 50 μl of the medium was reacted together with 50 μl of p-nitrophenyl-nacetyl-β-d-glucosaminidine, (p-NAG, Sigma) at 37° C. for 2 hours, and then, the reaction was terminated by adding 200 μl of 0.2 M glycine (pH 10.6, Sigma). Absorbance at a wavelength of 405 nm was measured using a spectrometer. The concentration of histamine was measured using a HTRF histamine assay kit (Cisbio). 10 μl of a medium supernatant of the cells was treated with anti-histamine cryptate conjugate and histamine-d2 according to the manufacturer's manual at room temperature for 2 hours. Thereafter, fluorescence was measured at 665 nm and 620 nm and compensated by a ratio of 665 nm/620 nm, and then, the concentration of histamine in the cells was measured using a standard curve. […]

[4] = system: RBL-2H3 cells (rat basophilic leukemia cells); experiment: Degranulation of mast cells activated by IgE antibody and antigen; type: cell-based; details: FIG. 3(A) and (B)
Description: In order to confirm whether or not the ceramide derivative compound according to the present invention suppresses activities of the mast cells, RBL-2H3 cells (rat basophilic leukemia cells) corresponding to one kind of mast cells were cultured in a DMEM medium containing 10% FBS in a 24-well plate, and then treated with the compound for 16 hours. In order to induce degranulation of the mast cells, the cells were treated with IgE antibody (0.2 μg/ml) and NP-BSA (0.1 μg/ml) for 1 hour, and then, concentrations of β-hexosaminidase and histamine released to the medium were measured. In detail, at the time of measuring the concentration of β-hexosaminidase, 50 μl of the medium was reacted together with 50 μl of p-nitrophenyl-nacetyl-β-d-glucosaminidine, (p-NAG, Sigma) at 37° C. for 2 hours, and then, the reaction was terminated by adding 200 μl of 0.2 M glycine (pH 10.6, Sigma). Absorbance at a wavelength of 405 nm was measured using a spectrometer. The concentration of histamine was measured using a HTRF histamine assay kit (Cisbio). […] Thereafter, fluorescence was measured at 665 nm and 620 nm and compensated by a ratio of 665 nm/620 nm, and then, the concentration of histamine in the cells was measured using a standard curve.

[5] = system: RBL-2H3 cells (rat basophilic leukemia cells); experiment: Histamine release of mast cells activated by PAR-2 agonist SLIGRL; type: cell-based; details: FIG. 4
Description: The PAR-2, which is a receptor activated by protease (tryptase, chymase, and the like) present outside cells, induces degranulation on surfaces of the mast cells. In order to confirm whether or not the ceramide derivative compound according to the present invention suppresses activities of the mast cells by PAR-2, RBL-2H3 cells (rat basophilic leukemia cells) corresponding to one kind of mast cells were cultured in a DMEM medium containing 10% FBS in a 24-well plate, and then treated with the compound for 2 hours. Thereafter, in order to induce degranulation of the mast cells, the cells were treated with 10 μM SLIGRL peptide, which is a PAR-2 agonist, for 1 hour. The concentration of histamine released outside the cells was measured using a HTRF histamine assay kit (Cisbio). 10 μl of a medium supernatant of the cells was treated with anti-histamine cryptate conjugate and histamine-d2 according to the manufacturer's manual at room temperature for 2 hours. Thereafter, fluorescence was measured at 665 nm and 620 nm and compensated by a ratio of 665 nm/620 nm, and then, the concentration of histamine in the cells was measured using a standard curve. […] Therefore, the novel ceramide derivative according to the present invention, which is the novel cannabinoid receptor agonist, is a compound effectively suppressing the activities of the mast cells.

[6] = system: oxazolone-induced atopic dermatitis animal model; experiment: Mast cells in skin of atopic dermatitis animal model (toluidine blue staining); type: in vivo, hairless mice; details: FIG. 9
Description: In order to evaluate whether or not the novel compound according to the present invention suppresses the activities of mast cells in an atopic dermatitis animal model, first, hairless mice were treated with oxazolone (Sigma), thereby establishing an atopic dermatitis animal model. More specifically, on day 1, mice were sensitized with 1% oxazolone in acetone on the back, and after 1 week, the mice were treated with 0.1% oxazolone in acetone on the back every other day for 2 weeks, thereby inducing atopic dermatitis on the back skin of the mice. Thereafter, the compound (1%) according to the present invention was dissolved in a solution in which polyethylene glycol (PEG, Sigma) and ethanol were mixed with each other at a ratio of 7:3, and the mice were treated with the obtained compound solution on the back once in the morning and evening for 10 days. Then, skin biopsy was taken and stained with toluidine blue solution (Sigma), thereby confirming presence of mast cells. […] The mast cells in the skin as described above release various kinds of inflammatory cytokines, thereby aggregating atopic dermatitis. […] The number of mast cells present on the skin in each of the groups was statistically analyzed and illustrated by a graph. […]

[7] = system: oxazolone-induced atopic dermatitis animal model; experiment: IgE and histamine in blood in atopic dermatitis animal model; type: in vivo, hairless mice; details: for concentration of IgE antibody in the blood: FIG. 8(A); for concentration of histamine in the blood: FIG. 8(B)
Description: as §1
In order to evaluate efficacy of the novel compound according to the present invention in an atopic dermatitis animal model, after treating an oxazolone (Sigma)-induced atopic dermatitis animal model with the compound, concentrations of IgE antibody and histamine present in the blood were measured. The IgE and histamine in the blood are known as markers of atopic dermatitis and inflammatory dermatitis such as contact dermatitis, and as the disease aggregates, the concentrations thereof in the blood further increases. The increased IgE activated mast cells, and allowed the mast cells to release a large amount of inflammatory cytokines such as histamine.

T1 sequence (P21554 whole entry): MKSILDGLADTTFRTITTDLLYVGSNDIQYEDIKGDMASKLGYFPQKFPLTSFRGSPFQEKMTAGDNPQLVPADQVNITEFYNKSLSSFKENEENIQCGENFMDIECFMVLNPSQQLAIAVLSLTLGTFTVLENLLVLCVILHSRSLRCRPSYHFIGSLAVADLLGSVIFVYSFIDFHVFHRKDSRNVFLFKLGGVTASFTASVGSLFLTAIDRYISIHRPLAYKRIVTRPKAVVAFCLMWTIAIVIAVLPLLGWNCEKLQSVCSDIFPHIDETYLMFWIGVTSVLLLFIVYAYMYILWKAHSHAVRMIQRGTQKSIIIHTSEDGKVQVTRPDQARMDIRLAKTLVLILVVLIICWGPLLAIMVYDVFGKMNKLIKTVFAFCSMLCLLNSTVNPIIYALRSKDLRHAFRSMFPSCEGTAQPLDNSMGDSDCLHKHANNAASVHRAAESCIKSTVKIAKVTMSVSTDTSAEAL

SMILES	skin damage [1]	concentration of cAMP [2]	Modulation [2]	activation of mast cells by ionomycin [3]	activation of the mast cells by IgE antibody and antigen [4]	activation of mast cells by protease activated receptor 2 (PAR-2) [5]	invasion of mast cells in a lesion site [6]	concentration of IgE antibody in the blood [7]	concentration of histamine in the blood [7]
CCCCCCCC/C=C\CCCCCCCC(=O)C(CCCCCC/C=C\CCCCCCCC)C(=O)NCCO (stereo not drawn) [CBS004, (11Z)-2-((Z)-hexadec-7-enyl)-N-(2-hydroxyethyl)-3-oxoicos-11-enamide]	repair effects	decreased dependently on the concentration of the compound	Agonist	suppression effects	suppression effects	suppression effects	suppressed	decrease effects	decrease effects
CCCCCCCC/C=C\CCCCCCCC(=O)C(CCCCCC/C=C\CCCCCCCC)C(=O)NC(CO)CO (stereo not drawn) [CBS007, (11Z)-2-((Z)-hexadec-7-enyl)-N-(1,3-dihydroxypropan-2-yl)-3-oxoicos-11-enamide]	repair effects	decreased dependently on the concentration of the compound	Agonist	suppression effects	suppression effects	suppression effects	suppressed	decrease effects	decrease effects
